From ChEMBL document CHEMBL1201862, “PubChem BioAssay data set” (2004)
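96-well plates; 48 h exposure; 5 concentrations. Endpoints by linear interpolation between flanking doses. Not reached: highest tested concentration assigned. GI50: concentration for 50% inhibition of growth.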 Active and inactive are the calls of the source. No stated cut-off is given here; in the data, active = GI50 up to about 1.1 µM and inactive = higher.

Assays:
Experiment in all cases: NCI tumour cell line growth inhibition, 48 h
SN12C = tested on: SN12C
CAKI-1 = tested on: CAKI-1
MDA-MB-435 = tested on: MDA-MB-435
BT-549 = tested on: BT-549
NCI/ADR-RES = tested on: NCI/ADR-RES
NCI-H522 = tested on: NCI-H522
A549 = tested on: A549
SNB-19 = tested on: SNB-19
SK-OV-3 = tested on: SK-OV-3
Malme-3M = tested on: Malme-3M
SR = tested on: SR
HCC 2998 = tested on: HCC 2998
UACC-257 = tested on: UACC-257
SW-620 = tested on: SW-620
U-251 = tested on: U-251
DU-145 = tested on: DU-145
ACHN = tested on: ACHN
HCT-116 = tested on: HCT-116
LOX IMVI = tested on: LOX IMVI

SMILES	GI50 (SN12C)	GI50 (CAKI-1)	GI50 (MDA-MB-435)	GI50 (BT-549)	GI50 (NCI/ADR-RES)	GI50 (NCI-H522)	GI50 (A549)	GI50 (SNB-19)	GI50 (SK-OV-3)	GI50 (Malme-3M)	GI50 (SR)	GI50 (HCC 2998)	GI50 (UACC-257)	GI50 (SW-620)	GI50 (U-251)	GI50 (DU-145)	GI50 (ACHN)	GI50 (HCT-116)	GI50 (LOX IMVI)
COC(=O)CC(=O)Nc1sccc1S(=O)(=O)c1ccccc1	> 100 µM (inactive)	> 100 µM (inactive)	> 100 µM (inactive)	27.5 µM (inactive)	> 100 µM (inactive)	46.9 µM (inactive)	> 100 µM (inactive)	> 100 µM (inactive)	> 100 µM (inactive)	> 100 µM (inactive)	> 100 µM (inactive)	15.8 µM (inactive)	67.1 µM (inactive)	> 100 µM (inactive)	> 100 µM (inactive)	71.3 µM (inactive)	> 100 µM (inactive)	> 100 µM (inactive)	–
COc1ccc(N2C(=O)c3cccnc3S2(=O)=O)cc1	> 100 µM (inactive)	> 100 µM (inactive)	> 100 µM (inactive)	> 100 µM (inactive)	> 100 µM (inactive)	> 100 µM (inactive)	> 100 µM (inactive)	> 100 µM (inactive)	> 100 µM (inactive)	> 100 µM (inactive)	> 100 µM (inactive)	> 100 µM (inactive)	> 100 µM (inactive)	> 100 µM (inactive)	> 100 µM (inactive)	> 100 µM (inactive)	> 100 µM (inactive)	> 100 µM (inactive)	–
CCCCC(=O)N/S(=N/C(=O)c1ccccc1)C(Cl)(Cl)Cl (stereo not drawn)	> 100 µM (inactive)	–	> 100 µM (inactive)	> 100 µM (inactive)	> 100 µM (inactive)	–	> 100 µM (inactive)	> 100 µM (inactive)	> 100 µM (inactive)	> 100 µM (inactive)	> 100 µM (inactive)	> 100 µM (inactive)	> 100 µM (inactive)	> 100 µM (inactive)	> 100 µM (inactive)	> 100 µM (inactive)	> 100 µM (inactive)	> 100 µM (inactive)	> 100 µM (inactive)
Cc1cc(C)c2nc3c(c(C(O)C4CCCCN4)c2c1)CC/C3=C\c1ccc(Cl)cc1 (stereo not drawn)	38.1 µM (inactive)	94.6 µM (inactive)	55.1 µM (inactive)	> 100 µM (inactive)	52.1 µM (inactive)	34 µM (inactive)	76 µM (inactive)	> 100 µM (inactive)	74.3 µM (inactive)	> 100 µM (inactive)	34.2 µM (inactive)	–	32.8 µM (inactive)	55.3 µM (inactive)	60.4 µM (inactive)	81.1 µM (inactive)	78.3 µM (inactive)	32 µM (inactive)	–
O=C1CCCC2=C1CC1=C(CCCC1=O)N2c1ccc(Cl)cc1	> 100 µM (inactive)	> 100 µM (inactive)	> 100 µM (inactive)	> 100 µM (inactive)	> 100 µM (inactive)	–	> 100 µM (inactive)	> 100 µM (inactive)	> 100 µM (inactive)	> 100 µM (inactive)	50.1 µM (inactive)	> 100 µM (inactive)	> 100 µM (inactive)	> 100 µM (inactive)	> 100 µM (inactive)	> 100 µM (inactive)	> 100 µM (inactive)	> 100 µM (inactive)	> 100 µM (inactive)
N/C(=N\c1ccc(Cl)cc1)NS(=O)(=O)c1cc(Cl)c(Oc2ccc([N+](=O)[O-])cc2Cl)c(Cl)c1	17.5 µM (inactive)	17.2 µM (inactive)	18.4 µM (inactive)	17.4 µM (inactive)	17.2 µM (inactive)	> 100 µM (inactive)	17.2 µM (inactive)	17.6 µM (inactive)	17.4 µM (inactive)	> 100 µM (inactive)	18.9 µM (inactive)	–	16.6 µM (inactive)	20 µM (inactive)	14.8 µM (inactive)	15.7 µM (inactive)	16 µM (inactive)	16.7 µM (inactive)	16.1 µM (inactive)
NC(CSC1(c2ccc(Cl)cc2)c2ccccc2-c2ccccc21)C(=O)O (stereo not drawn)	19.1 µM (inactive)	33.5 µM (inactive)	14.4 µM (inactive)	18.2 µM (inactive)	39.1 µM (inactive)	15.4 µM (inactive)	31.3 µM (inactive)	21.3 µM (inactive)	25.1 µM (inactive)	19.6 µM (inactive)	15.1 µM (inactive)	–	15.9 µM (inactive)	42.6 µM (inactive)	15.8 µM (inactive)	34.5 µM (inactive)	22.8 µM (inactive)	16.6 µM (inactive)	16.7 µM (inactive)
c1ccc(/N=C(/Nc2ccccc2)N2CCCC2)cc1	> 100 µM (inactive)	> 100 µM (inactive)	> 100 µM (inactive)	> 100 µM (inactive)	> 100 µM (inactive)	> 100 µM (inactive)	> 100 µM (inactive)	> 100 µM (inactive)	> 100 µM (inactive)	> 100 µM (inactive)	> 100 µM (inactive)	–	> 100 µM (inactive)	> 100 µM (inactive)	> 100 µM (inactive)	> 100 µM (inactive)	> 100 µM (inactive)	> 100 µM (inactive)	> 100 µM (inactive)
COC(C(=O)NN)c1ccccc1 (stereo not drawn)	> 100 µM (inactive)	> 100 µM (inactive)	> 100 µM (inactive)	> 100 µM (inactive)	> 100 µM (inactive)	> 100 µM (inactive)	> 100 µM (inactive)	> 100 µM (inactive)	> 100 µM (inactive)	> 100 µM (inactive)	> 100 µM (inactive)	> 100 µM (inactive)	> 100 µM (inactive)	> 100 µM (inactive)	> 100 µM (inactive)	> 100 µM (inactive)	> 100 µM (inactive)	–	–
CCOc1ccc(/N=N/C2C(=O)N(C(=O)CC(=O)Nc3ccc(C)cc3)N=C2C)cc1 (stereo not drawn)	35.2 µM (inactive)	26.5 µM (inactive)	2.94 µM (inactive)	23.6 µM (inactive)	24.4 µM (inactive)	–	34.7 µM (inactive)	14.3 µM (inactive)	–	47.5 µM (inactive)	14 µM (inactive)	19 µM (inactive)	> 100 µM (inactive)	21.6 µM (inactive)	15.1 µM (inactive)	38.6 µM (inactive)	50.8 µM (inactive)	12.4 µM (inactive)	14.6 µM (inactive)
CCOP1(=O)OCC2OC(n3cnc4c(N)ncnc43)C(O)C2O1.c1ccccc1 (stereo not drawn)	> 100 µM (inactive)	> 100 µM (inactive)	> 100 µM (inactive)	> 100 µM (inactive)	> 100 µM (inactive)	> 100 µM (inactive)	> 100 µM (inactive)	> 100 µM (inactive)	> 100 µM (inactive)	> 100 µM (inactive)	> 100 µM (inactive)	–	> 100 µM (inactive)	> 100 µM (inactive)	> 100 µM (inactive)	> 100 µM (inactive)	> 100 µM (inactive)	> 100 µM (inactive)	> 100 µM (inactive)
O=[N+]([O-])c1cn[n+]([O-])c2ccccc12	8.83 µM (inactive)	2.56 µM (inactive)	13.8 µM (inactive)	5.22 µM (inactive)	5.14 µM (inactive)	–	12 µM (inactive)	11.5 µM (inactive)	13.2 µM (inactive)	15.4 µM (inactive)	0.403 µM (active)	1.7 µM (inactive)	11.4 µM (inactive)	1.98 µM (inactive)	4.19 µM (inactive)	1.05 µM (active)	1.13 µM (inactive)	1.24 µM (inactive)	6.67 µM (inactive)
N=C(N)N/N=C/c1nc2sccn2c1[N+](=O)[O-]	37.5 µM (inactive)	> 100 µM (inactive)	19.8 µM (inactive)	39.9 µM (inactive)	> 100 µM (inactive)	21.6 µM (inactive)	35.4 µM (inactive)	35.2 µM (inactive)	52.5 µM (inactive)	13.3 µM (inactive)	33.2 µM (inactive)	–	16.3 µM (inactive)	29.4 µM (inactive)	28.6 µM (inactive)	22.3 µM (inactive)	60.3 µM (inactive)	22.4 µM (inactive)	21.4 µM (inactive)
CCC1(c2ccc(N3C(=O)c4cc(OC)c(OC)cc4C3=O)cc2)CCC(=O)NC1=O (stereo not drawn)	> 10 µM (inactive)	> 10 µM (inactive)	> 10 µM (inactive)	> 10 µM (inactive)	> 10 µM (inactive)	–	> 10 µM (inactive)	> 10 µM (inactive)	> 10 µM (inactive)	> 10 µM (inactive)	> 10 µM (inactive)	> 10 µM (inactive)	> 10 µM (inactive)	> 10 µM (inactive)	> 10 µM (inactive)	> 10 µM (inactive)	> 10 µM (inactive)	> 10 µM (inactive)	> 10 µM (inactive)
N=C1CCCC1C(=S)SCCC(N)=O (stereo not drawn)	> 100 µM (inactive)	> 100 µM (inactive)	> 100 µM (inactive)	> 100 µM (inactive)	> 100 µM (inactive)	> 100 µM (inactive)	> 100 µM (inactive)	> 100 µM (inactive)	> 100 µM (inactive)	> 100 µM (inactive)	19.3 µM (inactive)	> 100 µM (inactive)	> 100 µM (inactive)	> 100 µM (inactive)	> 100 µM (inactive)	> 100 µM (inactive)	> 100 µM (inactive)	> 100 µM (inactive)	–
Cc1cccc(CNNC(=O)c2cc[n+]([BH2-]C#N)cc2)c1	–	32.4 µM (inactive)	28.3 µM (inactive)	42.5 µM (inactive)	24.7 µM (inactive)	–	39.1 µM (inactive)	48.2 µM (inactive)	43.6 µM (inactive)	15 µM (inactive)	32.3 µM (inactive)	22.4 µM (inactive)	37.6 µM (inactive)	34 µM (inactive)	39.5 µM (inactive)	24.7 µM (inactive)	42.6 µM (inactive)	23.3 µM (inactive)	20.1 µM (inactive)
